Results published in the OPERA property sets (Mansouri et al. 2018).
Peptide text beside a SMILES is read from it. * marks the point of attachment. Cbz = O=C(OCc1ccccc1)*

In order of falling logP:
1. O=C(CCc1ccccc1)Nc1ccc(Cl)c(Cl)c1  4.85
2. O=C(Nc1ccc(Cl)c(Cl)c1)C1CCCCC1  4.72
3. FC(F)(F)CN(CC(F)(F)F)c1ccc(Br)cc1  4.7
4. CCC(C)NC(=O)C(=Cc1ccccc1)Sc1ccccc1 (stereo not drawn)  4.36
5. CCCCCCCCNC(N)=NNC(=O)Nc1ccc(Cl)cc1  4.35
6. CCCCOC(=O)c1cccc(C(=O)OCCCC)c1  4.26
7. CCC(=O)OCC(=O)C1(OC(=O)CC)C(C)CC2C3CC(F)C4=CC(=O)C(Cl)=CC4(C)C3(F)C(O)CC21C (stereo not drawn)  4.22
8. S=C=Nc1cccc(Br)c1  4.12
9. Cc1c2ccncc2cc2c1[nH]c1ccccc12  4.06
10. CCOCCOC(=O)C(C#N)=C(NCc1ccc(Cl)cc1)C(C)C  4.05
11. COc1cc(C=NO)ccc1OCCOC(=O)c1cccc(Cl)c1  3.94
12. Cc1c(-c2ccccc2)oc2ccccc2c1=O  3.92
13. COc1cc(C=NO)ccc1OCCOC(=O)c1ccc(Cl)cc1  3.92
14. CC(C)(C)C(=O)Nc1ccc(Cl)c(Cl)c1  3.88
15. Cc1cccc(C)c1NC(=O)c1ccc(CN2CCCCC2)cc1  3.86
16. CCC[Si](C)(C)C  3.84
17. CCCC(=O)Nc1ccc(Cl)c(Cl)c1  3.77
18. CC(C)C(=O)Nc1ccc(Cl)c(Cl)c1  3.72
19. O=C(Nc1ccccc1)c1ccc(C(=O)Nc2ccccc2)cc1  3.72
20. COc1cc(C=O)ccc1OCCOC(=O)c1ccc(Cl)cc1  3.71
21. OC(c1ccccc1)(c1ccccc1)c1ccccc1  3.68
22. COc1cc(C=O)ccc1OCCOC(=O)c1cccc(Cl)c1  3.67
23. CCCCCCC1OC(=O)c2cc(N)ccc21 (stereo not drawn)  3.65
24. CC=CC(=O)Nc1ccc(Cl)c(Cl)c1  3.63
25. Cc1ccc(Cc2c[nH]c(NCCCCc3ccc(Br)cc3C)nc2=O)cn1  3.61
26. COc1ccc(-c2nc3ccncc3[nH]2)c(OCCCCl)c1  3.53
27. O=C(O)c1cc(=O)c2cc3c(cc2o1)CCCC3  3.4
28. COc1ccc2c(=O)c(C)c(C(C)C)oc2c1  3.39
29. NC1=NC(C(F)(F)F)(C(F)(F)F)NC1(C(F)(F)F)C(F)(F)F  3.35
30. CC(=O)Nc1ccc(CN(C)N=Nc2ccc(C(=O)O)cc2)cc1  3.35
31. CCC1OC(=O)C(C)C(OC2CC(C)(OC)C(O)C(C)O2)C(C)C(OC2OC(C)CC(N(C)C)C2O)C(C)(O)CC(C)C(=O)C(C)C(OC(C)=O)C1C (stereo not drawn)  3.32
32. O=C(CCl)Nc1ccc(Cl)c(Cl)c1  3.29
33. CCOC(=O)CON=Cc1ccc(OCCOC(=O)c2ccccc2OC)c(OC)c1  3.27
34. CCOC(=O)CON=Cc1ccc(OCCOC(=O)c2cc(OC)c(OC)c(OC)c2)c(OC)c1  3.26
35. ON=C(c1ccccc1)c1ccccc1  3.2
36. O=C(Nc1ccc(Cl)c(Cl)c1)C(F)F  3.18
37. O=NN(CCCl)C(=O)Nc1ccc(Cl)cc1  3.16
38. CC(C)S(=O)(=O)n1c(N)nc2ccc(/C(=N/O)c3ccccc3)cc21  3.1
39. CC(=O)Nc1ccc(C(C)(C)C)cc1  3.05
40. S=C(Nc1ccccc1)c1ccccc1  3.03
41. CC1(C)OC2CC3C4CC(F)C5=CC(=O)C(Cl)=CC5(C)C4(F)C(O)CC3(C)C2(C(=O)CO)O1 (stereo not drawn)  2.99
42. COc1cc(C=NO)ccc1OCCOC(=O)c1ccccc1  2.94
43. CCOC(=O)CC(=O)C=Cc1cccc(C)c1  2.8
44. NN=C(c1ccccc1)c1ccccc1  2.79
45. CCCc1ccc(NC(C)=O)cc1  2.75
46. O=NN(CCCl)C(=O)NC1CCC(NC(=O)N(CCCl)N=O)CC1 (stereo not drawn)  2.74
47. CNC(=S)NC12CC3CC(CC(C3)C1)C2  2.67
48. CCOC(=O)CC(=O)C=Cc1ccc(C)cc1  2.63
49. O=C1CN=C(c2ccc[nH]2)c2cc(Cl)ccc2N1  2.59
50. COc1ccc(-c2nc3ccccc3[nH]2)c(OC)c1  2.59
51. COc1ccc(-c2nc3ncccc3[nH]2)c(OC)c1  2.57
52. COc1ccc(-c2nc3ccncc3[nH]2)c(OC)c1  2.56
53. CCCC1CC(C(=O)NC(C(C)Cl)C2OC(SC)C(O)C(O)C2O)N(CC)C1 (stereo not drawn)  2.51
54. CNC(=O)Oc1cccc(Cl)c1Cl  2.48
55. CC(C)C(NC(=O)OCc1ccccc1)C(=O)NC(Cc1ccc(O)cc1)C(=O)O (stereo not drawn) (Cbz-Val-Tyr-OH; configuration not given here)  2.43
56. COC(=O)c1cc2nc(S(=O)Cc3ncccc3C)[nH]c2cc1C (stereo not drawn)  2.4
57. O=C(CN(C(=O)CCl)c1ccccc1)Nc1ccccc1  2.32
58. N#CN=Nc1ccccc1  2.3
59. CCOC(=O)c1ccc(NC(=O)C(F)(F)F)cc1  2.25
60. CC(=O)OCC1CCC(NC(=O)N(CCCl)N=O)CC1 (stereo not drawn)  2.24
61. CCCCCC(=O)N(C)c1ccc(S(=O)(=O)N(C)C)cc1  2.16
62. CSc1cccc(NC(C)=O)c1  2.14
63. N[C@@H](CSC(c1ccccc1)(c1ccccc1)c1ccccc1)C(=O)O  2.06
64. CN(C)N=CCCc1ccccc1  2.05
65. CSc1ccc(NC(C)=O)cc1  2.03
66. CC(=O)N(CC(=O)Nc1ccccc1)c1ccccc1  2.01
67. C=CCn1c(=O)c(N(C)C)c(C)n(-c2ccccc2)c1=O  1.98
68. O=C(O)c1cc(=O)c2c(OCC(O)COc3cccc4oc(C(=O)O)cc(=O)c34)cccc2o1  1.92
69. CCCCCCCCCCCCN.Cl  1.85
70. CN(C)/N=N/c1ccccc1C(=O)NCC#N  1.79
71. COc1cc(C(=O)C=CN2CC=CC2)cc(OC)c1OC  1.77
72. COc1ccc(-c2ncc[nH]2)c(OC)c1  1.72
73. CC(=O)Nc1ccccc1C(C)C  1.71
74. CCCCNc1c(C)n(C)c(=O)n(-c2ccccc2)c1=O  1.69
75. COC(=O)c1ccccc1NC(C)=O  1.65
76. COc1cccc(Cc2cnc(N)nc2N)c1OC  1.62
77. CC(=O)Nc1ccc2c(=O)c(C)c(C)oc2c1[N+](=O)[O-]  1.61
78. CC1=Nc2ccc(I)cc2S(=O)(=O)N1  1.61
79. CN(C)C(=S)NCc1ccccc1  1.59
80. CSc1ccccc1NC(C)=O  1.53
81. COc1cccc(OC)c1OC  1.53
82. COc1cc(Cc2cnc(N)nc2N)cc(OC)c1N(C)C  1.51
83. COc1cccc(CC(C)N)c1OC (stereo not drawn)  1.49
84. CC(=O)NNC(=O)c1ccccc1N(C)C  1.49
85. Cc1c(NCC(C)C)c(=O)n(-c2ccccc2)c(=O)n1C  1.48
86. COc1cc(C)c2c(c1OC)-c1ccc(SC)c(=O)cc1C(NC1OCC(O)C(O)C1O)CC2 (stereo not drawn)  1.4
87. CC(C)(C)[N+]([O-])=NC#N  1.4
88. Cc1c(N(C)C)c(=O)[nH]c(=O)n1-c1ccccc1  1.4
89. NNc1ccc(Br)cc1  1.39
90. CCCCC1OC(=O)c2cc(N(CCO)CCO)ccc21 (stereo not drawn)  1.34
91. CC(=O)OC1CCCC(NC(=O)N(CCF)N=O)C1 (stereo not drawn)  1.33
92. CCC(=O)OCCOc1ccc(C=O)cc1OC  1.33
93. CC(=O)OC1OC(C)C(OC(C)=O)C(OC(C)=O)C1NC(=O)N(CCCl)N=O (stereo not drawn)  1.32
94. c1ccc(-c2nnco2)cc1  1.31
95. NC(=O)NN=Cc1ccccc1  1.27
96. CC(C)(C)/[N+]([O-])=C/c1ccccc1  1.26
97. O=C1CC(C(=O)O)Oc2ccccc21 (stereo not drawn)  1.26
98. Cc1csc(N=C(N)N)n1  1.24
99. O=[N+]([O-])c1ccc(OCCn2ccnn2)cc1  1.19
100. CC(=O)Nc1cccc(OCc2cccc(N3C(N)=NC(N)=NC3(C)C)c2)c1  1.15
101. CC(C)Cn1c(=O)n(C)c(=O)c2[nH]cnc21  1.15
102. COCCN(N=Nc1[nH]cnc1C(N)=O)C(C)(C)C  1.14
103. COc1cc(S(C)=O)ccc1-c1cn2ccncc2n1 (stereo not drawn)  1.11
104. CN(C)CCC1CN(C)C(=S)c2cccnc2O1 (stereo not drawn)  1.08
105. CN(C)C(=S)Nc1ccccc1  1.04
106. Cc1c(N(C)C)c(=O)n(C)c(=O)n1C  0.99
107. CN(C)c1ccc(C(=C2C=CC(=[N+](C)C)C=C2)c2ccc(N(C)C)cc2)cc1.[Cl-]  0.96
108. C#CCCC(=O)N(C)c1ccc(S(=O)(=O)N(C)C)cc1  0.88
109. CCOC(=O)CNCCCCCSc1c2[nH]cnc2nc[n+]1[O-]  0.87
110. Cc1[nH]c(=O)[nH]c(=O)c1N(CCF)CCCl  0.85
111. O=C(O)c1ccc[nH]1  0.85
112. CN(C(=O)CCSC#N)c1ccc(S(=O)(=O)N(C)C)cc1  0.84
113. COc1cc(C=NO)ccc1OCCO  0.82
114. CCOC(CCC#N)OCC  0.75
115. O=C(NC(CO)C(O)c1ccc(NC(=O)C2CC2)cc1)C(Cl)Cl (stereo not drawn)  0.75
116. CCNCC(F)(F)F  0.74
117. CCOC(CP(=O)(OCC)OCC)OCC  0.69
118. Cn1cnc2ccccc2c1=O  0.69
119. Cc1c(N2CCOCC2)c(=O)n(-c2ccccc2)c(=O)n1C  0.69
120. O=C1c2ccccc2C(=O)C1(O)O  0.67
121. CS(=O)(=O)F  0.55
122. O=S(=O)(NS(=O)(=O)c1ccccc1)c1ccccc1  0.52
123. CC1(C)OCCO1  0.46
124. CCC1(C)CCC(=O)NC1=O (stereo not drawn)  0.23
125. COc1ncccn1  0.23
126. CNC(=N[N+](=O)[O-])NCCSCc1nc[nH]c1C  0.18
127. O=C([O-])c1cc2ccccc2cc1O.[Na+]  0.17
128. CC(=O)Nc1ccccc1NC(C)=O  -0.03
129. c1ccn2nnnc2c1  -0.09
130. CN(C(=O)CCC#N)c1ccc(S(=O)(=O)N(C)C)cc1  -0.17
131. CC(=O)n1ccnc1  -0.34
132. CC(=O)NCCC(=O)N(C)c1ccc(S(=O)(=O)N(C)C)cc1  -0.35
133. Cn1c(SCC2=C(C(=O)O)N3C(=O)C(NC(=O)Cc4cccs4)C3SC2)nnc(O)c1=O (stereo not drawn)  -0.52
134. O=c1cn[nH]c(=O)[nH]1  -0.59
135. CC1CCCN(N=O)C1=O (stereo not drawn)  -0.66
136. C[N+](C)(C)Cc1cccc(C(F)(F)F)c1.[Br-]  -1.35
137. COC1OC(CNC(=O)N(C)N=O)C(O)C(O)C1O (stereo not drawn)  -1.57
138. O=C(O)Cc1n[nH]oc1=O  -1.66
139. C[n+]1c2cc(N)ccc2cc2ccc(N)cc21.[Cl-]  -1.78
140. CN(C)N=Nc1cn(C2OC(CO)C(O)C2O)c(=O)[nH]c1=O (stereo not drawn)  -1.82
141. Nc1ccc(S(=O)(=O)[O-])c2ccccc12.[Na+]  -2.34
142. NCC(=O)NCC(=O)NCC(=O)O  -2.68
143. O=S([O-])c1ccccc1.[Na+]  -3.54
